Laboratory results taken from ChEMBL document CHEMBL1201862, “PubChem BioAssay data set” (2004).
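Tested at 5 concentrations; 48 h exposure; 96-well plates; endpoints linearly interpolated, else capped at highest concentration. The concentration for 50% growth inhibition is given as GI50.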 Calls of active or inactive are those of the source. Cut-off read from the data, not from the text of the source: active = GI50 up to about 1.1 µM and inactive = higher.

Key:
Test in all cases: NCI tumour cell line growth inhibition, 48 h
786-0 = system: 786-0
A498 = system: A498
A549 = system: A549
ACHN = system: ACHN
BT-549 = system: BT-549
CAKI-1 = system: CAKI-1
CCRF-CEM = system: CCRF-CEM
COLO 205 = system: COLO 205
DU-145 = system: DU-145
EKVX = system: EKVX
HCC 2998 = system: HCC 2998
HCT-116 = system: HCT-116
HCT-15 = system: HCT-15
HL-60 = system: HL-60
HOP-62 = system: HOP-62
HOP-92 = system: HOP-92
HT-29 = system: HT-29
Hs-578T = system: Hs-578T
KM12 = system: KM12
LOX IMVI = system: LOX IMVI
M14 = system: M14
MCF7 = system: MCF7
MDA-MB-231 = system: MDA-MB-231
MDA-MB-435 = system: MDA-MB-435
MDA-N = system: MDA-N
MOLT-4 = system: MOLT-4
Malme-3M = system: Malme-3M
NCI-H226 = system: NCI-H226
NCI-H23 = system: NCI-H23
NCI-H460 = system: NCI-H460
NCI-H522 = system: NCI-H522
NCI/ADR-RES = system: NCI/ADR-RES
OVCAR-3 = system: OVCAR-3
OVCAR-4 = system: OVCAR-4
OVCAR-5 = system: OVCAR-5
OVCAR-8 = system: OVCAR-8
PC-3 = system: PC-3
RPMI-8226 = system: RPMI-8226
RXF 393 = system: RXF 393
SF-268 = system: SF-268
SF-295 = system: SF-295
SF-539 = system: SF-539
SK-MEL-28 = system: SK-MEL-28
SK-MEL-2 = system: SK-MEL-2
SK-MEL-5 = system: SK-MEL-5
SK-OV-3 = system: SK-OV-3
SN12C = system: SN12C
SNB-19 = system: SNB-19
SNB-75 = system: SNB-75
SR = system: SR
SW-620 = system: SW-620
T47D = system: T47D
TK-10 = system: TK-10
U-251 = system: U-251
UACC-257 = system: UACC-257
UACC-62 = system: UACC-62
UO-31 = system: UO-31
IGROV-1 = system: IGROV-1
K562 = system: K562

For `Cc1ccc(C(CCO)CCO)nc1`, the GI50 (786-0) was > 100 µM (inactive), the GI50 (A498) was > 100 µM (inactive) and the GI50 (A549) was > 100 µM (inactive). The GI50 (ACHN) was > 100 µM (inactive), the GI50 (BT-549) was > 100 µM (inactive) and the GI50 (CAKI-1) was > 100 µM (inactive). For the same compound, the GI50 (CCRF-CEM) was > 100 µM (inactive), the GI50 (COLO 205) was > 100 µM (inactive) and the GI50 (DU-145) was > 100 µM (inactive). For the same compound, the GI50 (EKVX) was > 100 µM (inactive), the GI50 (HCC 2998) was > 100 µM (inactive) and the GI50 (HCT-116) was > 100 µM (inactive). The GI50 (HCT-15) was > 100 µM, the GI50 (HL-60) was > 100 µM (inactive) and the GI50 (HOP-62) was > 100 µM (inactive). For the same compound, the GI50 (HOP-92) was > 100 µM (inactive), the GI50 (HT-29) was > 100 µM (inactive) and the GI50 (Hs-578T) was > 100 µM (inactive). The GI50 (KM12) was > 100 µM (inactive), the GI50 (LOX IMVI) was > 100 µM (inactive) and the GI50 (M14) was > 100 µM (inactive). For the same compound, the GI50 (MCF7) was > 100 µM (inactive), the GI50 (MDA-MB-231) was > 100 µM (inactive) and the GI50 (MDA-MB-435) was > 100 µM (inactive). For the same compound, the GI50 (MDA-N) was > 100 µM (inactive), the GI50 (MOLT-4) was > 100 µM (inactive) and the GI50 (Malme-3M) was > 100 µM (inactive). For the same compound, the GI50 (NCI-H226) was > 100 µM (inactive), the GI50 (NCI-H23) was > 100 µM (inactive) and the GI50 (NCI-H460) was > 100 µM (inactive). For the same compound, the GI50 (NCI-H522) was > 100 µM (inactive), the GI50 (NCI/ADR-RES) was > 100 µM (inactive) and the GI50 (OVCAR-3) was > 100 µM (inactive). For the same compound, the GI50 (OVCAR-4) was > 100 µM (inactive), the GI50 (OVCAR-5) was > 100 µM (inactive) and the GI50 (OVCAR-8) was > 100 µM (inactive). The GI50 (PC-3) was > 100 µM (inactive), the GI50 (RPMI-8226) was > 100 µM (inactive) and the GI50 (RXF 393) was > 100 µM (inactive). For the same compound, the GI50 (SF-268) was > 100 µM (inactive), the GI50 (SF-295) was > 100 µM (inactive) and the GI50 (SF-539) was > 100 µM (inactive). The GI50 (SK-MEL-28) was > 100 µM (inactive), the GI50 (SK-MEL-2) was > 100 µM (inactive) and the GI50 (SK-MEL-5) was > 100 µM (inactive). The GI50 (SK-OV-3) was > 100 µM (inactive), the GI50 (SN12C) was > 100 µM (inactive) and the GI50 (SNB-19) was > 100 µM (inactive). The GI50 (SNB-75) was > 100 µM (inactive), the GI50 (SR) was > 100 µM (inactive) and the GI50 (SW-620) was > 100 µM (inactive). The GI50 (T47D) was > 100 µM (inactive), the GI50 (TK-10) was > 100 µM (inactive) and the GI50 (U-251) was > 100 µM (inactive). For the same compound, the GI50 (UACC-257) was > 100 µM (inactive), the GI50 (UACC-62) was > 100 µM (inactive) and the GI50 (UO-31) was > 100 µM (inactive).
For `N#Cc1c(-c2ccccc2)cc(Nc2ccc(F)cc2)n2c1nc1ccccc12`, the GI50 (786-0) was 2.78 µM (inactive), the GI50 (A498) was 2.74 µM (inactive) and the GI50 (A549) was 2.28 µM (inactive). The GI50 (ACHN) was 2.7 µM (inactive), the GI50 (BT-549) was 3.24 µM (inactive) and the GI50 (CAKI-1) was 3.2 µM (inactive). For the same compound, the GI50 (COLO 205) was 1.58 µM (inactive), the GI50 (DU-145) was 2.94 µM (inactive) and the GI50 (EKVX) was 2.09 µM (inactive). For the same compound, the GI50 (HCC 2998) was 3.75 µM (inactive), the GI50 (HCT-116) was 1.83 µM (inactive) and the GI50 (HCT-15) was 3.26 µM. The GI50 (HL-60) was > 100 µM (inactive), the GI50 (HOP-62) was 2.83 µM (inactive) and the GI50 (HOP-92) was 1.01 µM (active). For the same compound, the GI50 (HT-29) was 2.26 µM (inactive), the GI50 (Hs-578T) was < 0.01 µM (active) and the GI50 (IGROV-1) was 4.12 µM (inactive). For the same compound, the GI50 (K562) was 5.61 µM (inactive), the GI50 (KM12) was 3.52 µM (inactive) and the GI50 (LOX IMVI) was 3.33 µM (inactive). The GI50 (M14) was 3.35 µM (inactive), the GI50 (MCF7) was 2.18 µM (inactive) and the GI50 (MDA-MB-231) was 3.83 µM (inactive). For the same compound, the GI50 (MDA-MB-435) was 3.11 µM (inactive), the GI50 (MDA-N) was 2.28 µM (inactive) and the GI50 (MOLT-4) was 7.03 µM (inactive). The GI50 (Malme-3M) was 3.66 µM (inactive), the GI50 (NCI-H226) was 2.81 µM (inactive) and the GI50 (NCI-H23) was 3.18 µM (inactive). The GI50 (NCI-H460) was 2.36 µM (inactive), the GI50 (NCI-H522) was 1.95 µM (inactive) and the GI50 (NCI/ADR-RES) was 2.26 µM (inactive). The GI50 (OVCAR-3) was 3.13 µM (inactive), the GI50 (OVCAR-4) was 4.62 µM (inactive) and the GI50 (OVCAR-5) was 3.16 µM (inactive). The GI50 (OVCAR-8) was 3.12 µM (inactive), the GI50 (PC-3) was 1.83 µM (inactive) and the GI50 (RPMI-8226) was 3.56 µM (inactive). The GI50 (RXF 393) was 2.66 µM (inactive), the GI50 (SF-268) was 3.72 µM (inactive) and the GI50 (SF-295) was 2.22 µM (inactive). The GI50 (SF-539) was 3.26 µM (inactive), the GI50 (SK-MEL-28) was 8.32 µM (inactive) and the GI50 (SK-MEL-2) was 1.43 µM (inactive). The GI50 (SK-MEL-5) was 1.24 µM (inactive), the GI50 (SK-OV-3) was 2.43 µM (inactive) and the GI50 (SN12C) was 2.02 µM (inactive). The GI50 (SNB-19) was 3.14 µM (inactive), the GI50 (SNB-75) was 1.72 µM (inactive) and the GI50 (SR) was 3.89 µM (inactive). The GI50 (SW-620) was 4.08 µM (inactive), the GI50 (T47D) was 1.88 µM (inactive) and the GI50 (TK-10) was 3.55 µM (inactive). The GI50 (U-251) was 2.06 µM (inactive), the GI50 (UACC-257) was 2.54 µM (inactive) and the GI50 (UACC-62) was 1.84 µM (inactive). The GI50 (UO-31) was 1.73 µM (inactive).
For `C/C=C\C(C)=C/C(C)C(=O)CC(O)CC1CC(=O)NC(=O)C1` (stereo not drawn), the GI50 (786-0) was 13.5 µM (inactive), the GI50 (A498) was 28.6 µM (inactive) and the GI50 (A549) was 21.5 µM (inactive). For the same compound, the GI50 (ACHN) was 17.5 µM (inactive), the GI50 (BT-549) was 34.2 µM (inactive) and the GI50 (CAKI-1) was 7.13 µM (inactive). For the same compound, the GI50 (CCRF-CEM) was 10.1 µM (inactive), the GI50 (COLO 205) was 17.1 µM (inactive) and the GI50 (DU-145) was 19.1 µM (inactive). For the same compound, the GI50 (EKVX) was > 100 µM (inactive), the GI50 (HCC 2998) was 33.5 µM (inactive) and the GI50 (HCT-116) was 16.4 µM (inactive). The GI50 (HCT-15) was 13.4 µM, the GI50 (HL-60) was 40.2 µM (inactive) and the GI50 (HOP-62) was 12.1 µM (inactive). For the same compound, the GI50 (HOP-92) was 72.8 µM (inactive), the GI50 (HT-29) was 24 µM (inactive) and the GI50 (Hs-578T) was 4.09 µM (inactive). The GI50 (IGROV-1) was 19 µM (inactive), the GI50 (K562) was 20.5 µM (inactive) and the GI50 (KM12) was 14.6 µM (inactive). For the same compound, the GI50 (LOX IMVI) was 20.6 µM (inactive), the GI50 (M14) was 13.6 µM (inactive) and the GI50 (MCF7) was 21 µM (inactive). For the same compound, the GI50 (MDA-MB-231) was > 42.3 µM (inactive), the GI50 (MDA-MB-435) was 28.4 µM (inactive) and the GI50 (MDA-N) was 19.5 µM (inactive). The GI50 (MOLT-4) was 4.79 µM (inactive), the GI50 (NCI-H226) was 35.5 µM (inactive) and the GI50 (NCI-H23) was 23.7 µM (inactive). The GI50 (NCI-H460) was 14.8 µM (inactive), the GI50 (NCI-H522) was 2.01 µM (inactive) and the GI50 (NCI/ADR-RES) was 4.71 µM (inactive). The GI50 (OVCAR-3) was 22.3 µM (inactive), the GI50 (OVCAR-4) was 19.1 µM (inactive) and the GI50 (OVCAR-5) was 4.86 µM (inactive). For the same compound, the GI50 (OVCAR-8) was 8.71 µM (inactive), the GI50 (PC-3) was 9.31 µM (inactive) and the GI50 (RPMI-8226) was 19 µM (inactive). The GI50 (RXF 393) was 17.1 µM (inactive), the GI50 (SF-268) was 10.5 µM (inactive) and the GI50 (SF-295) was 5.79 µM (inactive). The GI50 (SF-539) was 14 µM (inactive), the GI50 (SK-MEL-28) was 34.4 µM (inactive) and the GI50 (SK-MEL-2) was 13.6 µM (inactive). For the same compound, the GI50 (SK-MEL-5) was 17.9 µM (inactive), the GI50 (SK-OV-3) was 5.77 µM (inactive) and the GI50 (SN12C) was 13 µM (inactive). The GI50 (SNB-19) was 17.8 µM (inactive), the GI50 (SNB-75) was 5.27 µM (inactive) and the GI50 (SR) was 10.9 µM (inactive). For the same compound, the GI50 (SW-620) was 20.2 µM (inactive), the GI50 (T47D) was 28.1 µM (inactive) and the GI50 (TK-10) was 49.2 µM (inactive). For the same compound, the GI50 (U-251) was 31.2 µM (inactive), the GI50 (UACC-257) was 22.2 µM (inactive) and the GI50 (UACC-62) was 9.73 µM (inactive). For the same compound, the GI50 (UO-31) was 20.1 µM (inactive).
